Here are results for 21 compounds from patent publication US5478817A, “Digitoxigenin and dihydrodigitoxigenin 3β-derivatives and pharmaceutical compositions comprising same for the treatment of cardiovascular disorders” (priority 1992, dated 1995).

Broadly, the IC50 is the concentration at which inhibition is half-maximal.

Test [1] concerns spontaneous hypertensive rats (MHS). Description: systolic blood pressure and heart rate in hypertensive MHS rats (indirect tail-cuff). The test is classed as in vivo, rat (MHS). The following applies: 20 mg/Kg/os daily for ten days in Methocel 0.5% w/v, 7 MHS rats; for SBP (systolic blood pressure): controls 171 +/- 4.5; for HR (heart rate): controls 384 +/- 11.0. How it is done: The ability of these compounds to lower blood pressure in adult hypertensive MHS rats was tested by the following method:
systolic blood pressure (SBP) and heart rate (HR) were measured by an indirect tail-cuff method in three-month old hypertensive MHS rats before beginning treatment (basal values). The rats were then subdivided in two groups of 7 animals each, one receiving the compound and the other, the control group, receiving only the vehicle. The compound, suspended in METHOCEL® 0.5% (w/v), for ten days, was administered daily by mouth. SBP and HR were measured daily 6 and 24 hours after the treatment. When ten-day treatment washout had been under way for at least two days, whether the treatment mantains SBP low or re-establish the basal values was verified. […]

The target in test [2] is T1, purified Na^+,K^+ -ATPase (Homo sapiens, UniProt P05023).
T1 construct: Na^+,K^+ -ATPase receptor purified according to Jorghensen; from tissue
The test can be described thus: inhibition of the activity of the purified Na^+,K^+ -ATPase (hydrolysis of ^32 P-ATP). The test is classed as biochemical. From the text:
(§1) To test the affinity for the receptor site of the Na^+,K^+ -ATPase and the agonist or inhibitory activity on the enzyme, the following tests were used: a) displacement of the specific ^3 H-ouabain binding from the Na^+,K^+ -ATPase receptor purified according to Jorghensen (Jorghensen P., BBA, 1974,356, 36) and Erdmann (Erdmann E. et al., Arzneim. Forsh., 1984, 34 (II), 1314); b) inhibition of the activity of the purified Na^+,K^+ -ATPase measured as % of hydrolysis of ^32 P-ATP in presence and in absence of the tested compound (Mall F. et al., Biochem. Pharmacol., 1984, 33, 47).
(§2) The affinity and the inhibitory activity of the aglycone digitoxigenin (DIGI), dihydrodigitoxigenin 20(S) (DIGI 20(S)) and dihydrodigitoxigenin 20(R) (DIGI 20(R)) and some basic 3β-derivatives on the two tests are shown in the following table: […]

Test [3] concerns the target T2, Na^+,K^+ -ATPase receptor (Homo sapiens, UniProt P05023).
T2 construct: Na^+,K^+ -ATPase receptor purified according to Jorghensen; from tissue
Description: displacement of the specific ^3 H-ouabain binding from the Na^+,K^+ -ATPase receptor.
Description: as §1, §2

Where [4] appears, read: % hydrolysis of ^32 P-ATP, purified Na^+,K^+ -ATPase, read-out: Inhibitory Activity log IC50 (converted).
[5] abbreviates: ^3 H-ouabain displacement, purified Na^+,K^+ -ATPase, read-out: Binding ^3 H-Ouab. Displacement log IC50 (converted).

Counter-ions that a name gives are not always drawn. Like-named read-outs stand apart in the source and are kept apart here.

For `C[C@]12CC[C@H](OCCC(=N)N)C[C@H]1CC[C@@H]1[C@@H]2CC[C@]2(C)[C@@H](C3=CC(=O)OC3)CC[C@]12O` [Comp. I-f, 3β-(2-Amidinoethoxy)-14β-hydroxy-5β-card-20(22)-enolide oxalate], the “SBP (systolic blood pressure)” value in test [1] is recorded as 153 +/- 5.1 mm Hg. In addition, the “HR (heart rate)” value in test [1] was 378 +/- 8.5 beats/min. In addition, the results for the IC50 in test [2] and in test [3] were 1580 nM and 158 nM, respectively.
In the case of `C[C@]12CC[C@H](SCC[N+](C)(C)C)C[C@H]1CC[C@@H]1[C@@H]2CC[C@]2(C)[C@@H](C3=CC(=O)OC3)CC[C@]12O` [Comp. I-p, 3β-(2-(Trimethylammonium)ethylthio)-14β-hydroxy-5β-card-20(22)-enolide chloride], the “SBP (systolic blood pressure)” value in test [1] is 150 +/- 3.5 mm Hg. Besides, the “HR (heart rate)” value in test [1] is recorded as 378 +/- 9.3 beats/min. Further, the results for the IC50 in test [2] and in test [3] were 794 nM and 100 nM, respectively.
For `C[C@]12CC[C@H](SCC(O)CO)C[C@H]1CC[C@@H]1[C@@H]2CC[C@]2(C)[C@@H](C3=CC(=O)OC3)CC[C@]12O` (stereo partly drawn) [Comp. I-s, 3β-(2,3-Dihydroxypropylthio)-14β-hydroxy-5β-card-20(22)-enolide], the “SBP (systolic blood pressure)” value in test [1] is reported as 149 +/- 4.1 mm Hg. In test [1], the “HR (heart rate)” value is listed as 394 +/- 6.3 beats/min. The IC50 in test [2] is 631 nM; in test [3], 79.4 nM.
Turning to `C[C@]12CC[C@H](O)C[C@H]1CC[C@@H]1[C@@H]2CC[C@]2(C)[C@@H]([C@@H]3COC(=O)C3)CC[C@]12O` [DIGI 20(R), dihydrodigitoxigenin 20(R), reference compound], the IC50 is 7940 nM in test [2] and 2510 nM in test [3].
Turning to `C[C@]12CC[C@H](OCCCN)C[C@H]1CC[C@@H]1[C@@H]2CC[C@]2(C)[C@@H](C3=CC(=O)OC3)CC[C@]12O` [Comp. I-d, 3β-(3-Aminopropoxy)-14β-hydroxy-5β-card-20(22)-enolide oxalate], in test [1], the “SBP (systolic blood pressure)” value is listed as 148 +/- 3.2 mm Hg and the “HR (heart rate)” value is listed as 388 +/- 12.0 beats/min. The compound also gave an IC50 in test [2] of 631 nM. The compound further showed an IC50 in test [3] of 126 nM.
Take `C[C@]12CC[C@H](SCCN3CCCC3)C[C@H]1CC[C@@H]1[C@@H]2CC[C@]2(C)[C@@H](C3=CC(=O)OC3)CC[C@]12O` [Comp. I-n, 3β-(2-(1-Pyrrolidinyl)ethylthio)-14β-hydroxy-5β-card-20(22)-enolide sesquioxalate]: the IC50 is 398 nM in test [2] and 200 nM in test [3].
In the case of `C[C@]12CC[C@H](OCC[N+](C)(C)C)C[C@H]1CC[C@@H]1[C@@H]2CC[C@]2(C)[C@@H](C3=CC(=O)OC3)CC[C@]12O` [Comp. I-c, 3β-(2-(trimethylammonium)ethoxy)-14β-hydroxy-5β-card-20(22)-enolide chloride], in test [1], the “SBP (systolic blood pressure)” value is reported as 152 +/- 5.0 mm Hg and the “HR (heart rate)” value was 375 +/- 9.0 beats/min. The compound further had an IC50 in test [2] of 501 nM. The IC50 in test [3] is 251 nM.
`C[C@]12CC[C@H](SCC(O)CN)C[C@H]1CC[C@@H]1[C@@H]2CC[C@]2(C)[C@@H](C3=CC(=O)OC3)CC[C@]12O` (stereo partly drawn) [Comp. I-u, 3β-(3-Amino-2-hydroxypropylthio)-14β-hydroxy-5β-card-20(22)-enolide]: the “SBP (systolic blood pressure)” value in test [1] is listed as 152 +/- 5.2 mm Hg. The “HR (heart rate)” value in test [1] is given as 377 +/- 9.0 beats/min. For the same compound, the results for the IC50 in test [2] and in test [3] were 251 nM and 50.1 nM, respectively.
In the case of `C[C@]12CC[C@H](SCCCN)C[C@H]1CC[C@@H]1[C@@H]2CC[C@]2(C)[C@@H]([C@@H]3COC(=O)C3)CC[C@]12O` [Comp. I-m, 3β-Aminopropylthio )-14β-hydroxy-5β-20(R)-cardanolide oxalate], the IC50 in test [2] (setting [4]) is 2510 nM; in test [3] (setting [5]), 398 nM.
With `C[C@]12CC[C@H](SCCN)C[C@H]1CC[C@@H]1[C@@H]2CC[C@]2(C)[C@@H]([C@H]3COC(=O)C3)CC[C@]12O` [Comp. I-j, 3β-(2-Aminoethylthio)-14β-hydroxy-5β-20(S) cardanolide oxalate], the IC50 in test [2] (setting [4]) is 3160 nM; in test [3] (setting [5]) it was 316 nM.
On to `C[C@]12CC[C@H](SCCCN)C[C@H]1CC[C@@H]1[C@@H]2CC[C@]2(C)[C@@H](C3=CC(=O)OC3)CC[C@]12O` [Comp. I-k, 3β-(3-Aminopropylthio)-14β-hydroxy-5β-card-20(22)-enolide oxalate], for which, in test [1], the “SBP (systolic blood pressure)” value is given as 155 +/- 4.2 mm Hg and the “HR (heart rate)” value is listed as 385 +/- 11.0 beats/min. In test [2], this compound had a 50% inhibitory concentration (IC50) of 501 nM. The IC50 in test [3] is 79.4 nM.
As to `CN(C)CCCO[C@H]1CC[C@@]2(C)[C@H](CC[C@@H]3[C@@H]2CC[C@]2(C)[C@@H](C4=CC(=O)OC4)CC[C@]32O)C1` [Comp. I-b, 3β-(3-Dimethylaminopropoxy)-14β-hydroxy-5β-card-20(22)-enolide], the IC50 was 5010 nM in test [2] and 200 nM in test [3].
For `C[C@]12CC[C@H](SCCN)C[C@H]1CC[C@@H]1[C@@H]2CC[C@]2(C)[C@@H](C3=CC(=O)OC3)CC[C@]12O` [Comp. I-i, 3β-(2-Aminoethylthio)-14β-hydroxy-5β-card-20(22)-enolide oxalate], the IC50 in test [2] was 631 nM; in test [3], 100 nM.
As to `C[C@]12CC[C@H](SCC3CO3)C[C@H]1CC[C@@H]1[C@@H]2CC[C@]2(C)[C@@H](C3=CC(=O)OC3)CC[C@]12O` (stereo partly drawn) [Comp. I-h, 3β-(2,3-Epoxy)propylthio-14β-hydroxy-5β-card-20(22)-enolide], in test [1], the “SBP (systolic blood pressure)” value is 157 +/- 6.0 mm Hg and the “HR (heart rate)” value was 382 +/- 6.8 beats/min. The compound further gave an IC50 in test [2] of 631 nM. The same compound showed an IC50 in test [3] of 63.1 nM.
The like results for `CN(C)CCOCCO[C@H]1CC[C@@]2(C)[C@H](CC[C@@H]3[C@@H]2CC[C@]2(C)[C@@H](C4=CC(=O)OC4)CC[C@]32O)C1` [Comp. I-e, 3β-(2-(2-dimethylaminoethoxy)ethoxy)-14β-hydroxy-5β-card-20(22)-enolide] were, in that order, 149 +/- 4.8 mm Hg, 395 +/- 10.0 beats/min, 1000 nM and 100 nM.
On to `C[C@]12CC[C@H](OCCN3CCCC3)C[C@H]1CC[C@@H]1[C@@H]2CC[C@]2(C)[C@@H](C3=CC(=O)OC3)CC[C@]12O` [Comp. I-a, 3β-(2-(1-Pyrrolidinyl)ethoxy)-14β-hydroxy-5β-card-20(22)-enolide], for which the 50% inhibitory concentration (IC50) in test [2] is 251 nM; in test [3], 63.1 nM.
As to `C[C@]12CC[C@H](SCCCN3CCNCC3)C[C@H]1CC[C@@H]1[C@@H]2CC[C@]2(C)[C@@H](C3=CC(=O)OC3)CC[C@]12O` [Comp. I-r, 3β-(3-(1-Piperazinyl)propylthio)-14β-hydroxy-5β-card-20(22)-enolide], the IC50 was 631 nM in test [2] and 316 nM in test [3].
The like results for `C[C@]12CC[C@H](O)C[C@H]1CC[C@@H]1[C@@H]2CC[C@]2(C)[C@@H]([C@H]3COC(=O)C3)CC[C@]12O` [DIGI 20(S), dihydrodigitoxigenin 20(S), reference compound] were, in that order, 2510 nM and 1580 nM.
For `C[C@]12CC[C@H](O)C[C@H]1CC[C@@H]1[C@@H]2CC[C@]2(C)[C@@H](C3=CC(=O)OC3)CC[C@]12O` [DIGI, digitoxigenin], in test [1], the “SBP (systolic blood pressure)” value is 173 +/- 4.0 mm Hg and the “HR (heart rate)” value was 380 +/- 10.0 beats/min. In test [2], this compound showed an IC50 of 316 nM. The compound also showed an IC50 in test [3] of 316 nM.
Regarding `C[C@]12CC[C@H](SCCCN3CCCC3)C[C@H]1CC[C@@H]1[C@@H]2CC[C@]2(C)[C@@H](C3=CC(=O)OC3)CC[C@]12O` [Comp. I-q, 3β-(3-(1-Pyrrolidinyl)propylthio)-14β-hydroxy-5β-card-20(22)-enolide oxalate], the IC50 in test [2] is 251 nM; in test [3] it was 158 nM.
`C[C@]12CC[C@H](SCCCN)C[C@H]1CC[C@@H]1[C@@H]2CC[C@]2(C)[C@@H]([C@H]3COC(=O)C3)CC[C@]12O` [Comp. I-l, 3β-(3-Aminopropylthio)-14β-hydroxy-5β-20(S)-cardanolide oxalate]: in test [1], the “SBP (systolic blood pressure)” value was 147 +/- 4.8 mm Hg and the “HR (heart rate)” value was 390 +/- 10.0 beats/min. Further, the IC50 in test [2] (setting [4]) was 2000 nM. Further, the IC50 in test [3] (setting [5]) is 251 nM.
